The source of these data is ChEMBL document CHEMBL5120907, “Triculamin: An Unusual Lasso Peptide with Potent Antimycobacterial Activity” (J Nat Prod, 2022).

For data set [1], the system named is Mycolicibacterium smegmatis. Description: Bactericidal activity against Mycobacterium smegmatis DSM 43080 assessed as reduction in colony count and measured after 3 days by agar diffusion assay. It is filed as functional. The conditions noted are these: DSM 43080, 72 h, time 3 day.
The subject of data set [2] is Pseudomonas aeruginosa. The data set can be described thus: Bactericidal activity against Pseudomonas aeruginosa DSM 19880 assessed as reduction in colony count and measured after 3 days by agar diffusion assay. Format: functional. The conditions noted are these: DSM 19880, 72 h, time 3 day. (Agar diffusion results depend on both activity and mobility in agar.)
Data set [3] has as its system Acinetobacter baumannii. The data set can be described thus: Antibacterial activity against Acinetobacter baumannii […] assessed as reduction in bacterial growth measured after 3 days by broth microdilution method. Format: functional. The conditions noted are these: 72 h, time 3 day.
The test system of data set [4] is Mycolicibacterium phlei. Description: Antibacterial activity against Mycobacterium phlei DSM 43239 assessed as reduction in bacterial growth measured after 3 days by broth microdilution method. It is filed as functional. The conditions noted are these: DSM 43239, 72 h, time 3 day.
Data set [5] concerns Mycolicibacterium smegmatis. The data set can be described thus: Antibacterial activity against Mycobacterium smegmatis DSM 43080 assessed as reduction in bacterial growth measured after 3 days by broth microdilution method. Format: functional. As to conditions: DSM 43080, 72 h, time 3 day. On the technique in general: In broth dilution the organism is exposed to a series of concentrations in liquid medium.

The test system of data set [6] is Pseudomonas aeruginosa. Description: Antibacterial activity against Pseudomonas aeruginosa DSM 19880 assessed as reduction in bacterial growth measured after 3 days by broth microdilution method. As to conditions: DSM 19880, 72 h, time 3 day. Format: functional.
In data set [7] the test system is Enterococcus faecium. Description: Antibacterial activity against Enterococcus faecium DSM 20477 assessed as reduction in bacterial growth measured after 3 days by broth microdilution method. Format: functional. As to conditions: DSM 20477, 72 h, time 3 day.
The test system of data set [8] is Klebsiella oxytoca. The data set can be described thus: Antibacterial activity against Klebsiella oxytoca DSM 5175 assessed as reduction in bacterial growth measured after 3 days by broth microdilution method. The conditions noted are these: DSM 5175, 72 h, time 3 day. It is filed as functional.
The subject of data set [9] is Enterococcus faecium. Description: Bactericidal activity against Enterococcus faecium DSM 20477 assessed as reduction in colony count and measured after 3 days by agar diffusion assay. As to conditions: DSM 20477, 72 h, time 3 day. Format: functional.
Data set [10] has as its system Enterobacter cloacae. Description: Antibacterial activity against Enterobacter cloacae DSM 30054 assessed as reduction in bacterial growth measured after 3 days by broth microdilution method. Format: functional. The conditions noted are these: DSM 30054, 72 h, time 3 day.
The test system of data set [11] is Mycolicibacterium phlei. Description: Bactericidal activity against Mycobacterium phlei DSM 43239 assessed as reduction in colony count and measured after 3 days by agar diffusion assay. Format: functional. The conditions noted are these: DSM 43239, 72 h, time 3 day.
Data set [12] deals with Bacillus cereus. The data set can be described thus: Antibacterial activity against Bacillus cereus DSM 31 assessed as reduction in bacterial growth measured after 3 days by broth microdilution method. Format: functional. As to conditions: DSM 31, 72 h, time 3 day.
Data set [13] has as its system Staphylococcus aureus. Description: Antibacterial activity against Staphylococcus aureus DSM 20231 assessed as reduction in bacterial growth measured after 3 days by broth microdilution method. Format: functional. The conditions noted are these: DSM 20231, 72 h, time 3 day.
Data set [14] in a line: Stability of the compound assessed as carboxypeptidase Y mediated compound digestion by measuring Mycobacterium smegmatis DSM 43080 zone of inhibition incubated for 4 hrs by agar diffusion assay. It is filed as ADME.
Data set [15] concerns Bacillus cereus. Description: Bactericidal activity against Bacillus cereus DSM 31 assessed as reduction in colony count and measured after 3 days by agar diffusion assay. It is filed as functional. As to conditions: DSM 31, 72 h, time 3 day.
The test system of data set [16] is Enterobacter cloacae. The data set can be described thus: Bactericidal activity against Enterobacter cloacae DSM 30054 assessed as reduction in colony count and measured after 3 days by agar diffusion assay. The conditions noted are these: DSM 30054, 72 h, time 3 day. Format: functional.
The subject of data set [17] is Acinetobacter baumannii. The data set can be described thus: Bactericidal activity against Acinetobacter baumannii […] assessed as reduction in colony count and measured after 3 days by agar diffusion assay. Format: functional. As to conditions: 72 h, time 3 day.
Data set [18] in a line: Stability of the compound assessed as carboxypeptidase Y mediated compound digestion pretreated at 95 degreeC for 4 hrs followed by protease addition incubated for 4 hrs by HPLC analysis. It is filed as ADME.
Data set [19] has as its system Staphylococcus aureus. Description: Bactericidal activity against Staphylococcus aureus DSM 20231 assessed as reduction in colony count and measured after 3 days by agar diffusion assay. It is filed as functional. As to conditions: DSM 20231, 72 h, time 3 day.
In data set [20] the test system is Mycolicibacterium smegmatis. The data set can be described thus: Antimycobacterial activity against Mycobacterium smegmatis DSM 43080 assessed as reduction in bacterial growth at late-exponential phase at 10 times of MIC measured up to 48 hrs by time killing assay. It is filed as functional, organism-based. The conditions noted are these: TDE = time-dependent effect.

Data set [21] can be described thus: Thermal stability of compound in water incubated at 95 degreeC for 4 hrs by HPLC analysis. Format: physicochemical. The conditions noted are these: buffer.
Data set [22] in a line: Thermal stability of compound in water assessed as antibacterial activity against Mycobacterium smegmatis DSM 43080 by measuring zone of inhibition incubated up to 8 hrs at 95 degreeC by agar diffusion assay. It is filed as physicochemical. As to conditions: buffer.
The subject of data set [23] is Klebsiella oxytoca. Description: Bactericidal activity against Klebsiella oxytoca DSM 5175 assessed as reduction in colony count and measured after 3 days by agar diffusion assay. The conditions noted are these: DSM 5175, 72 h, time 3 day. Format: functional.
The test system of data set [24] is Mycolicibacterium smegmatis. Description: Antimycobacterial activity against Mycobacterium smegmatis DSM 43080 assessed as reduction in bacterial growth at mid-exponential phase at 10 times of MIC and measured up to 24 hrs by time killing assay. Format: functional, organism-based. As to conditions: TDE = time-dependent effect.

≈ marks a conversion by molar mass, not a printed value. Where a SMILES comes first, the peptide text is derived from it. Bridges are numbered along the chain shown (N, C = ends). Where only a bound is given, the exact number is not on record here.

For orientation: MBC means the smallest concentration meeting the test's criterion for killing. Usually MIC stands for the smallest concentration in the dilution series that meets the test's criterion for growth inhibition. For the molecule `NC[C@H]1O[C@H](O[C@H]2[C@H](O)[C@@H](O[C@H]3O[C@H](CO)[C@@H](O)[C@H](N)[C@H]3O)[C@H](N)C[C@@H]2N)[C@H](O)[C@@H](O)[C@@H]1O` [KANAMYCIN], the MBC is 0.5 µg/mL (≈ 1.03 µM) in [1], greater than 32 µg/mL in [2], greater than 32 µg/mL in data set [9] and 1 µg/mL (≈ 2.06 µM) in [11]. In addition, the MIC was 2 µg/mL (≈ 4.13 µM) in data set [3]; 1 µg/mL (≈ 2.06 µM) in data set [4]; 0.5 µg/mL (≈ 1.03 µM) in [5]; greater than 32 µg/mL in [6]; greater than 32 µg/mL in data set [7]; 2 µg/mL (≈ 4.13 µM) in data set [8]. Moreover, the MIC is 2 µg/mL (≈ 4.13 µM) in data set [10], 8 µg/mL (≈ 16.5 µM) in data set [12] and 2 µg/mL (≈ 4.13 µM) in data set [13].

For the molecule `CC[C@H](C)[C@H](NC(=O)CNC(=O)[C@@H]1CC(=O)N[C@@H](CO)C(=O)N[C@@H](CCCCN)C(=O)N[C@@H](CCCCN)C(=O)N[C@@H](CO)C(=O)N[C@@H](CCCCN)C(=O)N2CCC[C@H]2C(=O)NCC(=O)N1)C(=O)N[C@@H](CCCNC(=N)N)C(=O)NCC(=O)N[C@@H](CCCCN)C(=O)NCC(=O)N[C@H](C(=O)N[C@@H](CCCNC(=N)N)C(=O)NCC(=O)O)C(C)C` (SKKSKPGDGIRGKGVRG-OH; lactam N-8), the Stability result in data set [14], in data set [18], in data set [21] and in [22] was “Stable” in each case. The MBC is 0.5 µg/mL (≈ 0.293 µM) in data set [1]; greater than 32 µg/mL in data set [2]; greater than 32 µg/mL in [15]; greater than 32 µg/mL in [16]; greater than 32 µg/mL in data set [17]; greater than 32 µg/mL in data set [19]. Moreover, the minimum bactericidal concentration (MBC) in data set [9] is greater than 32 µg/mL; in data set [11], greater than 0.125 µg/mL; in data set [23] it was greater than 32 µg/mL. Further, the MIC in [3] was greater than 32 µg/mL; in [4], 0.03 µg/mL (≈ 0.0176 µM); in data set [5] it was 0.125 µg/mL (≈ 0.0731 µM); in data set [6] it was greater than 32 µg/mL; in data set [7], greater than 32 µg/mL; in data set [8], greater than 32 µg/mL. For the same molecule, the MIC in data set [10], in [12] and in data set [13] was greater than 32 µg/mL throughout. Further, the Activity result in [20] and in data set [24] was “Tde” each time.

As to `CO[C@H]1/C=C/O[C@@]2(C)Oc3c(C)c(O)c4c(O)c(c(/C=N/N5CCN(C)CC5)c(O)c4c3C2=O)NC(=O)/C(C)=C\C=C\[C@H](C)[C@H](O)[C@@H](C)[C@@H](O)[C@@H](C)[C@H](OC(C)=O)[C@@H]1C` [RIFAMPIN], the results for the MBC in [1], in data set [2] and in data set [11] were 8 µg/mL (≈ 9.72 µM), greater than 32 µg/mL and 0.06 µg/mL (≈ 0.0729 µM), respectively. For the same molecule, the MIC in [3] is 1 µg/mL (≈ 1.22 µM); in data set [4] it was 0.03 µg/mL (≈ 0.0365 µM); in data set [5], 8 µg/mL (≈ 9.72 µM); in data set [6], greater than 32 µg/mL; in data set [7], 8 µg/mL (≈ 9.72 µM); in [8], 4 µg/mL (≈ 4.86 µM). Further, the figures for the MIC in data set [10], in [12] and in data set [13] were 16 µg/mL (≈ 19.4 µM), 0.25 µg/mL (≈ 0.304 µM) and 0.004 µg/mL (≈ 0.00486 µM), respectively.
